Data reported in patent US10308617B2, “Triazole benzamide derivatives and the compositions and methods of treatment regarding the same” (An2H Discovery Limited, priority 2016, dated 2019).
Read-outs that look alike come from different tables or passages of the source.

Key:
[1] = Microsomal Stability Assay, rat liver microsomes; type: in vitro ADME; details: for half-life at 1 μM: rat, liver microsomes, pH 7.4, 1 μM compound, 1.0 mg/mL microsome, NADPH, read-out: RLM t1/2
Description: Compounds were also tested for metabolic stability in both rat liver microsomes (RLM) and human liver microsomes (HLM) and their half-life calculated (See Table 5). The assay was performed as follows. The total volume for each incubation was 250 μL. A 100 μM DMSO solution of compound (diluted from 10 mM stock solution) was spiked into 50 mM KH2PO4 (pH 7.4) buffer containing liver microsome at a concentration of 1.0 mg/mL. The reaction was initiated by the addition of 50 μL of 1 mM NADPH. The final concentration of each compound was 1 μM (1% DMSO). The positive controls, phenacetin for CYP1A2, diclofenac for CYP2C9, omeprazole for CYP2C19, dextromethorphan for CYP2D6 and midazolam for CYP3A4 were added to a separate tube with the final substrate concentrations of 1 μM (1% DMSO) for evaluating the enzyme activities in the liver microsomes. At 0, 15, 30 and 60 min, an aliquot of 15 μL reaction mixtures were removed and 200 μL of methanol (with internal standard of 25 ng/mL propranolol) was added to quench the reaction. The resulting mixture was centrifuged and supernatant was used for LC-MS/MS analysis.
The signals for each compound, or the metabolites for the probe substrates and the internal standard were integrated and the peak area ratios to internal standard were generated. Percent parent remaining at a specified timepoint was calculated based on the peak area ratios at time 0 (as 100%) for in vitro metabolic stability studies in liver microsome and hepatocyte. The observed rate constant (kobs) for the metabolism of substrates was calculated by plotting the natural log of percentage substrate remaining versus time of incubation with the slope being kobs. The half-life (T1/2) was calculated according to the following equation: T1/2=0.693/kobs

A549 (lung) = experiment: Cancer Cell Proliferation Assay (acid phosphatase, 72 hrs); type: cell-based; details: Homo sapiens
Description: (§1) Measurement of the inhibitive effect of compounds on cancer cell proliferation was performed. Various cell lines were tested, including HCT-116 (colon); A549 (lung); TOV-21G (ovarian); Calu-6 (lung); H1703 (Lung); LS-174T (colon); and SKOV3 (ovarian). The assays were performed under the following conditions: Cells are harvested at a concentration of 4×10^4 cells/ml in media. Volumes of 100 μl/well of these cell suspensions were added to a 96 well plate using a multichannel pipette. Plates were gently agitated to ensure an even dispersion of cells over a given plate. Cells were then incubated at 37° C., 5% CO^2 overnight. Following this, 100 μl of compound at varying concentrations was added to wells in triplicate. Control wells are those with 100 μl media containing 0.33% DMSO added to cell suspension (this is the equivalent volume of DMSO found in the highest concentration of drug). Plates were then gently agitated, as above, and incubated at 37° C., 5% CO2 for 72 hrs (control wells have reached 80-90% confluency). Assessment of cell proliferation in the presence of the compound was determined by the acid phosphatase assay.
(§2) Following the incubation period of 72 hrs, media was removed from the plates. Each well on the plate was washed twice with 100 μl PBS. This was then removed and 100 μl of freshly prepared phosphatase substrate (10 mM p-nitrophenol phosphate in 0.1M sodium acetate, 0.1% triton X-100, pH 5.5) was added to each well. The plates were then incubated in the dark at 37° C. for 2 hours. Colour development was monitored during this time. The enzymatic reaction was stopped by the addition of 50 μl of 1N NaOH. The plate was read in a dual beam plate reader at 405 nm with a reference wavelength of 620 nm. The absorbance reading of the latter is subtracted from the former, and the effect of the drug on cell proliferation was then measured as a percentage against the control cells (DMSO), which is taken as 0% inhibition. […] FIG. 14 A-K also show the % inhibition curves of various compounds on these cancer cell lines with the 72 hrs proliferation assay.

H1703 (Lung) = experiment: as above; type: cell-based; details: Homo sapiens, NCI-H1703, read-out: IC50 on cancer cell line proliferation, H1703
Description: as §1, §2

HCT-116 (colon) = experiment: as above; type: cell-based; details: Homo sapiens, read-out: IC50 on cancer cell line proliferation, HCT-116
Description: as §1, §2

LS-174T (colon) = experiment: as above; type: cell-based; details: Homo sapiens, LS174T, read-out: IC50 on cancer cell line proliferation, LS-174T
Description: as §1, §2

SKOV3 (ovarian) = experiment: as above; type: cell-based; details: Homo sapiens, SK-OV-3, read-out: IC50 on cancer cell line proliferation, SKOV3
Description: as §1, §2

TOV-21G (ovarian) = experiment: as above; type: cell-based; details: Homo sapiens, TOV21G, read-out: IC50 on cancer cell line proliferation, TOV-21G
Description: as §1, §2

Calu-6 (lung) = experiment: as above; type: cell-based; details: Homo sapiens, read-out: IC50 on cancer cell line proliferation, Calu6
Description: as §1, §2

[2] = read-out: IC50 on cancer cell line proliferation, A549

Row | half-life at 1 μM [1] [min] | In vitro RLM ([1]; as repeated in the PK tables) [min] | IC50 (A549 (lung); [2]) [µM] | IC50 (H1703 (Lung)) [µM] | IC50 (HCT-116 (colon)) [µM] | IC50 (LS-174T (colon)) [µM] | IC50 (SKOV3 (ovarian)) [µM] | IC50 (TOV-21G (ovarian)) [µM] | In vitro RLM (min) ([1]; as repeated in the PK tables) | IC50 (Calu-6 (lung)) [µM] | IC50 (A549 (lung); A549, 72 h, heading: IC50 on cancer cell line proliferation) [µM] | Compound
1 | 36 |  |  |  |  |  |  |  |  |  |  | O=C(Nc1nc(NC(=O)c2cc3ccccc3s2)n(-c2ccccc2)n1)c1ccccc1 [Compound A2]
2 | 20.6 |  |  |  |  |  |  |  |  |  |  | O=C(Nc1nc(NC(=O)c2ccccc2)n(-c2ccccc2)n1)c1ccccc1 [Compound A, N,N′-(1-phenyl-1H-1,2,4-triazole-3,5-diyl)dibenzamide]
3 | 2 |  |  |  |  |  |  |  |  |  |  | O=C(Nc1nc(NC(=O)c2ccc3ccccc3n2)n(-c2ccccc2)n1)c1ccccc1 [Compound B2]
4 | 12 |  |  |  |  |  |  |  |  |  |  | Cc1ccccc1C(=O)Nc1nc(NC(=O)/C=C/c2ccccc2)n(-c2ccccc2)n1 [Compound C2]
5 | 14.1 | 14.1 | 2.26 | 2.59 | 1.67 | 2.2 | 3.16 | 1.74 |  |  |  | O=C(/C=C/c1ccccc1)Nc1nc(NC(=O)c2ccccc2)nn1-c1ccccc1 [Compound C, N-(5-cinnamamido-1-phenyl-1H-1,2,4-triazol-3-yl)benzamide]
6 | 3 |  |  |  |  |  |  |  |  |  |  | O=C(Nc1nc(NC(=O)c2ccccc2)n(-c2ccc3c(c2)OCCO3)n1)c1ccccc1 [Compound E2]
7 | 630 |  | 2.65 |  | 2.28 | 2.67 | 3.3 | 2.22 | Stable |  |  | Cc1ccccc1C(=O)Nc1nc(NC(=O)c2ccccc2C)n(-c2ccccc2)n1 [Compound F, 2-methyl-N-[5-[(2-methylbenzoyl)amino]-1-phenyl-1,2,4-triazol-3-yl]benzamide]
8 | 39 |  |  |  |  |  |  |  |  |  |  | O=C(Nc1nc(NC(=O)c2cccs2)nn1-c1ccccc1)c1ccccc1 [Compound G2]
9 | 16 |  | 0.823 | 3.04 | 0.485 | 0.497 | 0.737 | 0.751 |  | 2.41 |  | Cc1ccccc1C(=O)Nc1nc(-c2ccccn2)nn1-c1ccc(OC(F)(F)F)cc1 [Compound H3]
10 | 50 |  |  |  |  |  |  |  |  |  |  | O=C(Nc1nc(NC(=O)c2ccccc2)n(-c2ccc3ncccc3c2)n1)c1ccccc1 [Compound J2]
11 | 29 |  |  |  |  |  |  |  |  |  |  | Cc1ccccc1C(=O)Nc1nc(NC(=O)c2cccs2)nn1-c1ccccc1 [Compound K2]
12 |  |  | 2.53 | 3.46 | 1.92 | 3.11 | 3.14 | 1.35 |  |  |  | Cc1ccccc1C(=O)Nc1nc(NC(=O)c2ccccc2)nn1-c1ccccc1 [Compound K, N-(5-benzamido-2-phenyl-1,2,4-triazol-3-yl)-2-methyl-benzamide]
13 | 59.2 |  |  |  | 0.939 | 1.52 | 1.23 | 0.989 |  | 2.27 | 1.55 | O=C(Nc1nc(Nc2ncnc3ccccc23)n(-c2ccccc2)n1)c1ccccc1 [Compound L, N-[1-phenyl-5-(quinazolin-4-ylamino)-1,2,4-triazol-3-yl]benzamide]
14 | 76 |  | 2.16 | ~2.53 | 1.64 | 2.29 | 2.08 | 1.6 |  |  |  | Cc1ccccc1C(=O)Nc1nc(-c2ccccn2)nn1-c1ccccc1 [Compound Q2]
15 | 133 |  | 0.613 | 1.54 | 0.294 | 1.73 | 2.06 | 0.688 |  | 0.194 |  | Cc1ccccc1C(=O)Nc1nc(NC(=O)c2ccccc2C)n(-c2ccc(Cl)cc2)n1 [Compound Q3]
16 | 77 |  |  |  |  |  |  |  |  |  |  | Cc1ccccc1C(=O)Nc1nc(Nc2ncnc3ccccc23)n(-c2ccccc2)n1 [Compound R2]
17 |  |  | 1.98 | 2.62 | 1.3 | 1.69 | 2.71 | 1.19 |  | 3.37 |  | Cc1ccc(-c2nc(NC(=O)c3ccccc3C)n(-c3ccccc3)n2)nc1 [Compound R3, 2-methyl-N-(3-(5-methylpyridin-2-yl)-1-phenyl-1H-1,2,4-triazol-5-yl)benzamide]
18 |  |  | 0.878 | 2.71 | 0.482 | 0.522 | 0.65 | 0.566 |  | 2.36 |  | Cc1ccccc1C(=O)Nc1nc(-c2ncccc2C)nn1-c1ccccc1 [Compound S3, 2-methyl-N-(3-(3-methylpyridin-2-yl)-1-phenyl-1H-1,2,4-triazol-5-yl)benzamide]
19 | 10.5 |  |  |  |  |  |  |  |  |  |  | O=C(/C=C/c1ccccc1)Nc1nc(NC(=O)c2ccccc2)nn1-c1ccccn1 [Compound U1]
20 | 126 |  |  |  |  |  |  |  |  |  |  | c1ccc(-n2nc(-c3ccccn3)nc2Nc2ncnc3ccccc23)cc1 [Compound U2]
21 | 110 |  |  |  |  |  |  |  |  |  |  | O=C(Nc1nc(NC(=O)c2ccco2)n(-c2ccccc2)n1)c1ccccc1 [Compound W1]
22 | < 1 |  | 0.893 | 4.7 | 0.351 | 0.938 | 1.18 | 0.495 |  | 3.34 |  | O=C(Nc1nc(-c2ccccn2)nn1-c1ccccc1)c1ccccc1 [Compound Y1, N-(1-phenyl-3-(pyridin-2-yl)-1H-1,2,4-triazol-5-yl)benzamide]
23 | 19 |  | 0.253 | 0.481 | 0.132 | 0.391 | 0.606 | 0.21 |  | 1.06 |  | O=C(Nc1nc(NC(=O)c2ccccc2)n(-c2ccc(OC(F)(F)F)cc2)n1)c1ccccc1 [Compound Z1]
24 | 45 |  |  |  |  |  |  |  |  |  |  | O=C(Nc1nc(Nc2ncnc3ccccc23)n(-c2ccccc2)n1)c1ccco1 [Z]
